C=CC(=O)NC(C)(C)CC(C)=O
solubility (mole fraction) (in 2-butanone, 272.05 K): 0.229
solubility (mole fraction) (in 2-butanone, 278.25 K): 0.276
solubility (mole fraction) (in 2-butanone, 283.25 K): 0.321
solubility (mole fraction) (in 2-butanone, 288.45 K): 0.373
solubility (mole fraction) (in 2-butanone, 293.35 K): 0.424
solubility (mole fraction) (in 2-butanone, 298.15 K): 0.484
solubility (mole fraction) (in 2-butanone, 303.25 K): 0.551
solubility (mole fraction) (in 2-butanone, 308.15 K): 0.623
solubility (mole fraction) (in 2-butanone, 313.15 K): 0.704
solubility (mole fraction) (in 2-butanone, 318.15 K): 0.79
solubility (mole fraction) (in 2-butanone, 323.15 K): 0.88
solubility (mole fraction) (in 2-pentanone, 272.05 K): 0.2
solubility (mole fraction) (in 2-pentanone, 278.25 K): 0.245
solubility (mole fraction) (in 2-pentanone, 283.25 K): 0.285
solubility (mole fraction) (in 2-pentanone, 288.45 K): 0.334
solubility (mole fraction) (in 2-pentanone, 293.35 K): 0.385
solubility (mole fraction) (in 2-pentanone, 298.15 K): 0.442
solubility (mole fraction) (in 2-pentanone, 303.25 K): 0.509
solubility (mole fraction) (in 2-pentanone, 308.15 K): 0.581
solubility (mole fraction) (in 2-pentanone, 313.15 K): 0.658
solubility (mole fraction) (in 2-pentanone, 318.15 K): 0.747
solubility (mole fraction) (in 2-pentanone, 323.15 K): 0.844
solubility (mole fraction) (in acetone, 272.05 K): 0.207
solubility (mole fraction) (in acetone, 278.25 K): 0.252
solubility (mole fraction) (in acetone, 283.25 K): 0.294
solubility (mole fraction) (in acetone, 288.45 K): 0.342
solubility (mole fraction) (in acetone, 293.35 K): 0.394
solubility (mole fraction) (in acetone, 298.15 K): 0.45
solubility (mole fraction) (in acetone, 303.25 K): 0.515
solubility (mole fraction) (in acetone, 308.15 K): 0.584
solubility (mole fraction) (in acetone, 313.15 K): 0.66
solubility (mole fraction) (in acetone, 318.15 K): 0.746
solubility (mole fraction) (in acetone, 323.15 K): 0.839
solubility (mole fraction) (in ethanol, 272.15 K): 0.186
solubility (mole fraction) (in ethanol, 278.25 K): 0.231
solubility (mole fraction) (in ethanol, 283.15 K): 0.271
solubility (mole fraction) (in ethanol, 288.15 K): 0.318
solubility (mole fraction) (in ethanol, 293.35 K): 0.374
solubility (mole fraction) (in ethanol, 297.65 K): 0.427
solubility (mole fraction) (in ethanol, 303.15 K): 0.5
solubility (mole fraction) (in ethanol, 308.15 K): 0.576
solubility (mole fraction) (in ethanol, 313.65 K): 0.671
solubility (mole fraction) (in ethanol, 318.85 K): 0.767
solubility (mole fraction) (in ethanol, 323.65 K): 0.867
solubility (mole fraction) (in ethyl acetate, 272.05 K): 0.166
solubility (mole fraction) (in ethyl acetate, 278.25 K): 0.208
solubility (mole fraction) (in ethyl acetate, 283.25 K): 0.249
solubility (mole fraction) (in ethyl acetate, 288.45 K): 0.299
solubility (mole fraction) (in ethyl acetate, 293.35 K): 0.351
solubility (mole fraction) (in ethyl acetate, 298.15 K): 0.411
solubility (mole fraction) (in ethyl acetate, 303.25 K): 0.481
solubility (mole fraction) (in ethyl acetate, 308.15 K): 0.558
solubility (mole fraction) (in ethyl acetate, 313.15 K): 0.645
solubility (mole fraction) (in ethyl acetate, 318.15 K): 0.745
solubility (mole fraction) (in ethyl acetate, 323.15 K): 0.85
solubility (mole fraction) (in ethyl formate, 272.05 K): 0.186
solubility (mole fraction) (in ethyl formate, 278.25 K): 0.23
solubility (mole fraction) (in ethyl formate, 283.25 K): 0.271
solubility (mole fraction) (in ethyl formate, 288.45 K): 0.321
solubility (mole fraction) (in ethyl formate, 293.35 K): 0.376
solubility (mole fraction) (in ethyl formate, 298.15 K): 0.435
solubility (mole fraction) (in ethyl formate, 303.25 K): 0.506
solubility (mole fraction) (in ethyl formate, 308.15 K): 0.575
solubility (mole fraction) (in ethyl formate, 313.15 K): 0.659
solubility (mole fraction) (in ethyl formate, 318.15 K): 0.754
solubility (mole fraction) (in ethyl formate, 323.15 K): 0.859
solubility (mole fraction) (in isobutanol, 272.05 K): 0.212
solubility (mole fraction) (in isobutanol, 278.25 K): 0.258
solubility (mole fraction) (in isobutanol, 283.25 K): 0.301
solubility (mole fraction) (in isobutanol, 288.45 K): 0.351
solubility (mole fraction) (in isobutanol, 293.35 K): 0.403
solubility (mole fraction) (in isobutanol, 298.15 K): 0.462
solubility (mole fraction) (in isobutanol, 303.25 K): 0.529
solubility (mole fraction) (in isobutanol, 308.15 K): 0.601
solubility (mole fraction) (in isobutanol, 313.15 K): 0.68
solubility (mole fraction) (in isobutanol, 318.15 K): 0.767
solubility (mole fraction) (in isobutanol, 323.15 K): 0.866
solubility (mole fraction) (in isopentanol, 272.15 K): 0.154
solubility (mole fraction) (in isopentanol, 278.25 K): 0.197
solubility (mole fraction) (in isopentanol, 283.15 K): 0.24
solubility (mole fraction) (in isopentanol, 288.15 K): 0.29
solubility (mole fraction) (in isopentanol, 293.35 K): 0.352
solubility (mole fraction) (in isopentanol, 297.65 K): 0.411
solubility (mole fraction) (in isopentanol, 303.15 K): 0.495
solubility (mole fraction) (in isopentanol, 308.15 K): 0.585
solubility (mole fraction) (in isopentanol, 313.65 K): 0.7
solubility (mole fraction) (in isopentanol, 318.85 K): 0.82
solubility (mole fraction) (in isopentanol, 323.65 K): 0.955
solubility (mole fraction) (in isopropanol, 272.15 K): 0.155
solubility (mole fraction) (in isopropanol, 278.25 K): 0.197
solubility (mole fraction) (in isopropanol, 283.15 K): 0.238
solubility (mole fraction) (in isopropanol, 288.15 K): 0.286
solubility (mole fraction) (in isopropanol, 293.35 K): 0.343
solubility (mole fraction) (in isopropanol, 297.65 K): 0.398
solubility (mole fraction) (in isopropanol, 303.15 K): 0.479
solubility (mole fraction) (in isopropanol, 308.15 K): 0.562
solubility (mole fraction) (in isopropanol, 313.65 K): 0.667
solubility (mole fraction) (in isopropanol, 318.85 K): 0.777
solubility (mole fraction) (in isopropanol, 323.65 K): 0.898
solubility (mole fraction) (in methanol, 272.15 K): 0.241
solubility (mole fraction) (in methanol, 278.25 K): 0.287
solubility (mole fraction) (in methanol, 283.15 K): 0.327
solubility (mole fraction) (in methanol, 288.15 K): 0.371
solubility (mole fraction) (in methanol, 293.35 K): 0.422
solubility (mole fraction) (in methanol, 297.65 K): 0.468
solubility (mole fraction) (in methanol, 303.15 K): 0.531
solubility (mole fraction) (in methanol, 308.15 K): 0.594
solubility (mole fraction) (in methanol, 313.65 K): 0.667
solubility (mole fraction) (in methanol, 318.85 K): 0.746
solubility (mole fraction) (in methanol, 323.65 K): 0.823
solubility (mole fraction) (in methyl acetate, 272.05 K): 0.206
solubility (mole fraction) (in methyl acetate, 278.25 K): 0.253
solubility (mole fraction) (in methyl acetate, 283.25 K): 0.294
solubility (mole fraction) (in methyl acetate, 288.45 K): 0.343
solubility (mole fraction) (in methyl acetate, 293.35 K): 0.399
solubility (mole fraction) (in methyl acetate, 298.15 K): 0.455
solubility (mole fraction) (in methyl acetate, 303.25 K): 0.526
solubility (mole fraction) (in methyl acetate, 308.15 K): 0.6
solubility (mole fraction) (in methyl acetate, 313.15 K): 0.68
solubility (mole fraction) (in methyl acetate, 318.15 K): 0.769
solubility (mole fraction) (in methyl acetate, 323.15 K): 0.869
solubility (mole fraction) (in n-butanol, 272.15 K): 0.169
solubility (mole fraction) (in n-butanol, 278.25 K): 0.213
solubility (mole fraction) (in n-butanol, 283.15 K): 0.253
solubility (mole fraction) (in n-butanol, 288.15 K): 0.303
solubility (mole fraction) (in n-butanol, 293.35 K): 0.362
solubility (mole fraction) (in n-butanol, 297.65 K): 0.417
solubility (mole fraction) (in n-butanol, 303.15 K): 0.496
solubility (mole fraction) (in n-butanol, 308.15 K): 0.579
solubility (mole fraction) (in n-butanol, 313.65 K): 0.681
solubility (mole fraction) (in n-butanol, 318.85 K): 0.793
solubility (mole fraction) (in n-butanol, 323.65 K): 0.908
solubility (mole fraction) (in n-hexanol, 272.15 K): 0.151
solubility (mole fraction) (in n-hexanol, 278.25 K): 0.194
solubility (mole fraction) (in n-hexanol, 283.15 K): 0.236
solubility (mole fraction) (in n-hexanol, 288.15 K): 0.286
solubility (mole fraction) (in n-hexanol, 293.35 K): 0.346
solubility (mole fraction) (in n-hexanol, 297.65 K): 0.406
solubility (mole fraction) (in n-hexanol, 303.15 K): 0.491
solubility (mole fraction) (in n-hexanol, 308.15 K): 0.581
solubility (mole fraction) (in n-hexanol, 313.65 K): 0.696
solubility (mole fraction) (in n-hexanol, 318.85 K): 0.82
solubility (mole fraction) (in n-hexanol, 323.65 K): 0.953
solubility (mole fraction) (in n-pentanol, 272.15 K): 0.148
solubility (mole fraction) (in n-pentanol, 278.25 K): 0.189
solubility (mole fraction) (in n-pentanol, 283.15 K): 0.229
solubility (mole fraction) (in n-pentanol, 288.15 K): 0.276
solubility (mole fraction) (in n-pentanol, 293.35 K): 0.336
solubility (mole fraction) (in n-pentanol, 297.65 K): 0.391
solubility (mole fraction) (in n-pentanol, 303.15 K): 0.469
solubility (mole fraction) (in n-pentanol, 308.15 K): 0.553
solubility (mole fraction) (in n-pentanol, 313.65 K): 0.66
solubility (mole fraction) (in n-pentanol, 318.85 K): 0.775
solubility (mole fraction) (in n-pentanol, 323.65 K): 0.896
solubility (mole fraction) (in n-propanol, 272.15 K): 0.18
solubility (mole fraction) (in n-propanol, 278.25 K): 0.226
solubility (mole fraction) (in n-propanol, 283.15 K): 0.269
solubility (mole fraction) (in n-propanol, 288.15 K): 0.32
solubility (mole fraction) (in n-propanol, 293.35 K): 0.381
solubility (mole fraction) (in n-propanol, 297.65 K): 0.437
solubility (mole fraction) (in n-propanol, 303.15 K): 0.52
solubility (mole fraction) (in n-propanol, 308.15 K): 0.605
solubility (mole fraction) (in n-propanol, 313.65 K): 0.71
solubility (mole fraction) (in n-propanol, 318.85 K): 0.819
solubility (mole fraction) (in n-propanol, 323.65 K): 0.937

Reference: BigSolDB 2.1
